The values that follow are results of earlier work, collected in PMC3018413, “Uptake and Metabolism of the Novel Peptide Angiotensin-(1-12) by Neonatal Cardiac Myocytes” (PLoS ONE, 2011).

Some results are limits rather than exact numbers.

Data set [1] deals with Ang II formation from Ang-(1–12). To be noted: ref Prosser et al. [29] as printed. The source says: In the controlled environment of a cell culture system, neonatal cardiac myocytes of SHR and WKY metabolized ^125I-Ang-(1–12) into Ang I, leading to sequential production of Ang II, Ang-(1–7), and other smaller angiotensin fragments. […] This new observation is in ...
In data set [2] the test system is human renal tubular epithelial cells.

`CC(C)C[C@H](NC(=O)[C@@H](NC(=O)N[C@@H](Cc1ccccc1)C(=O)O)[C@@H]1CCN=C(N)N1)C(=O)N[C@H](C=O)Cc1ccccc1` [chymostatin]: the “inhibition of Ang II formation from Ang-(1–12)” value in data set [1] is listed as “completely inhibited”.

B1: angiotensinogen: angiotensinogen protein bound to human renal tubular epithelial cells, cited study (protein, UniProt P01019 25-476, looked up)
Angiotensinogen: DRVYIHPFHLVIHNESTCEQLAKANAGKPKDPTFIPAPIQAKTSPVDEKALQDQLVLVAAKLDTEDKLRAAMVGMLANFLGFRIYGMHSELWGVVHGATVLSPTAVFGTLASLYLGALDHTADRLQAILGVPWKDKNCTSRLDAHKVLSALQAVQGLLVAQGRADSQAQLLLSTVVGVFTAPGLHLKQPFVQGLALYTPVVLPRSLDFTELDVAAEKIDRFMQAVTGWKTGCSLMGASVDSTLAFNTYVHFQGKMKGFSLLAEPQEFWVDNSTSVSVPMLSGMGTFQHWSDIQDNFSVTQVPFTESACLLLIQPHYASDLDKVEGLTFQQNSLNWMKKLSPRTIHLTMPQLVLQGSYDLQDLLAQAELPAILHTELNLQKLSNDRIRVGEVLNSIFFELEADEREPTESTQQLNKPEVLEVTLNRPFLFAVYDQSATALHFLGRVANPLSTA
For B1, in data set [2], the “bound angiotensinogen that could be displaced” value is reported as at most 50%.
